Data taken from patent US11053204B2, “Pyrimidinyloxy benzene derivatives as herbicides” (FMC Corporation, priority 2015, dated 2021).

What was measured:
Type in all cases: in vivo
[1] = system: ryegrass, Italian (Italian ryegrass, Lolium multiflorum); experiment: Test C postemergence, plant response rating; conditions: Lolium multiflorum, post-emergence
Method in brief: (§1)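 Preemergence: seeds sown in loam–sand blend or silt loam and sprayed with test chemicals in a non-phytotoxic surfactant-containing solvent. Postemergence: potted plants at 2–18 cm (1–4-leaf stage) sprayed with the same formulation. After 13–15 d in greenhouse, visual rating versus controls on 0 (no effect) to 100 (complete control) scale.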

[2] = system: barnyardgrass (Echinochloa crus-galli); experiment: Test C postemergence, plant response rating; conditions: Echinochloa crus-galli, post-emergence
Method in brief: as §1

[3] = system: crabgrass, large (large crabgrass, Digitaria sanguinalis); experiment: Test C postemergence, plant response rating; conditions: Digitaria sanguinalis, post-emergence
Method in brief: as §1

[4] = system: blackgrass (Alopecurus myosuroides); experiment: Test A postemergence, visual injury rating; conditions: Alopecurus myosuroides, post-emergence, 240 h, 0 is no effect, 100 is complete control, read-out: Blackgrass plant response rating (0 to 100 scale)
Method in brief: (§2)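 Injury scores run from 0, no effect, to 100, complete control, judged by eye against untreated plants roughly 10 days after treatment. Chemicals carried a surfactant in a non-phytotoxic solvent and went onto loam–sand soil preemergence or onto one- to two-leaf seedlings postemergence.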

[5] = system: giant foxtail (Setaria faberii); experiment: Test A postemergence, visual injury rating; conditions: Setaria faberi, post-emergence, 240 h, 0 is no effect, 100 is complete control, read-out: Foxtail, Giant plant response rating (0 to 100 scale)
Method in brief: as §2

[6] = system: galium (catchweed bedstraw, Galium aparine); experiment: Test A postemergence, visual injury rating; conditions: Galium, post-emergence, 240 h, 0 is no effect, 100 is complete control, read-out: Galium plant response rating (0 to 100 scale)
Method in brief: as §2

[7] = system: barnyardgrass (Echinochloa crus-galli); experiment: Test A postemergence, visual injury rating; conditions: Echinochloa crus-galli, post-emergence, 240 h, 0 is no effect, 100 is complete control, read-out: Barnyardgrass plant response rating (0 to 100 scale)
Method in brief: as §2

[8] = system: wheat (Triticum aestivum); experiment: Test A postemergence, visual injury rating; conditions: Triticum aestivum, post-emergence, 240 h, 0 is no effect, 100 is complete control, read-out: Wheat plant response rating (0 to 100 scale)
Method in brief: as §2

[9] = system: corn (Zea mays); experiment: Test A postemergence, visual injury rating; conditions: Zea mays, post-emergence, 240 h, 0 is no effect, 100 is complete control, read-out: Corn plant response rating (0 to 100 scale)
Method in brief: as §2

[10] = system: pigweed (Amaranthus retroflexus); experiment: Test A postemergence, visual injury rating; conditions: Amaranthus retroflexus, post-emergence, 240 h, 0 is no effect, 100 is complete control, read-out: Pigweed plant response rating (0 to 100 scale)
Method in brief: as §2

[11] = system: kochia (Kochia scoparia); experiment: Test A postemergence, visual injury rating; conditions: Bassia scoparia, post-emergence, 240 h, 0 is no effect, 100 is complete control, read-out: Kochia plant response rating (0 to 100 scale)
Method in brief: as §2

[12] = system: Italian ryegrass (Lolium multiflorum); experiment: Test A postemergence, visual injury rating; conditions: Lolium multiflorum, post-emergence, 240 h, 0 is no effect, 100 is complete control, read-out: Ryegrass, Italian plant response rating (0 to 100 scale)
Method in brief: as §2

[13] = system: ragweed (common ragweed, Ambrosia elatior); experiment: Test A postemergence, visual injury rating; conditions: Ambrosia artemisiifolia, post-emergence, 240 h, 0 is no effect, 100 is complete control, read-out: Ragweed plant response rating (0 to 100 scale)
Method in brief: as §2

[14] = system: morningglory (Ipomoea coccinea); experiment: Test C preemergence, plant response rating; conditions: Ipomoea, pre-emergence, Preemergence
Method in brief: as §1

[15] = system: velvetleaf (Abutilon theophrasti); experiment: Test C preemergence, plant response rating; conditions: Abutilon theophrasti, pre-emergence, Preemergence
Method in brief: as §1

[16] = system: waterhemp (common waterhemp, Amaranthus rudis); experiment: Test C preemergence, plant response rating; conditions: Amaranthus tuberculatus, pre-emergence, Preemergence
Method in brief: as §1

[17] = system: wheat (winter wheat, Triticum aestivum); experiment: Test C preemergence, plant response rating; conditions: Triticum aestivum, pre-emergence, Preemergence
Method in brief: as §1

[18] = system: nutsedge, yellow (yellow nutsedge, Cyperus esculentus); experiment: Test C preemergence, plant response rating; conditions: Cyperus, pre-emergence, Preemergence
Method in brief: as §1

[19] = system: lambsquarters (Chenopodium album); experiment: Test C preemergence, plant response rating; conditions: Chenopodium album, pre-emergence, Preemergence
Method in brief: as §1

[20] = 62 g ai/ha, scale 0 to 100 (0 no effect, 100 complete control)
[21] = 125 g ai/ha, scale 0 to 100 (0 no effect, 100 complete control)

O=C(OCCC(F)(F)F)c1c(Cl)cccc1Oc1ncc(Cl)cn1 [Compound 15, 3,3,3-trifluoropropyl 2-chloro-6-[(5-chloro-2-pyrimidinyl)oxy]benzoate]
70%: pest or weed control at 31 g/ha ([19]; 31 g ai/ha, scale 0 to 100)
95%: pest or weed control at 125 g/ha ([19]; 125 g ai/ha, scale of 0 to 100)
40%: pest or weed control at 500 g/ha ([13]; 500 g ai/ha)
10%: pest or weed control at 62 g/ha [1, 20]
100%: pest or weed control at 500 g/ha ([4]; 500 g ai/ha) | pest or weed control at 500 g/ha ([5]; 500 g ai/ha) | pest or weed control at 125 g/ha ([6]; 125 g ai/ha) | pest or weed control at 500 g/ha ([6]; 500 g ai/ha) | pest or weed control at 500 g/ha ([7]; 500 g ai/ha) | plant injury at 500 g/ha ([8]; 500 g ai/ha) | pest or weed control at 125 g/ha ([10]; 125 g ai/ha) | pest or weed control at 500 g/ha ([10]; 500 g ai/ha) | pest or weed control at 125 g/ha ([11]; 125 g ai/ha) | pest or weed control at 500 g/ha ([11]; 500 g ai/ha) | pest or weed control at 125 g/ha ([15]; 125 g ai/ha, scale of 0 to 100) | pest or weed control at 62 g/ha ([15]; 62 g ai/ha, scale 0 to 100) | pest or weed control at 125 g/ha ([16]; 125 g ai/ha, scale of 0 to 100) | pest or weed control at 31 g/ha ([16]; 31 g ai/ha, scale 0 to 100) | pest or weed control at 62 g/ha ([16]; 62 g ai/ha, scale 0 to 100)
60%: pest or weed control at 125 g/ha ([12]; 125 g ai/ha) | pest or weed control at 125 g/ha ([14]; 125 g ai/ha, scale of 0 to 100) | pest or weed control at 16 g/ha ([15]; 16 g ai/ha, scale 0 to 100) | pest or weed control at 16 g/ha ([19]; 16 g ai/ha, scale 0 to 100)
35%: pest or weed control at 62 g/ha ([14]; 62 g ai/ha, scale 0 to 100)
20%: pest or weed control at 16 g/ha ([2]; 16 g ai/ha, scale 0 to 100) | pest or weed control at 62 g/ha [2, 20] | pest or weed control at 125 g/ha [2, 21] | pest or weed control at 31 g/ha ([3]; 31 g ai/ha, scale 0 to 100) | plant injury at 125 g/ha ([8]; 125 g ai/ha) | pest or weed control at 125 g/ha ([13]; 125 g ai/ha) | pest or weed control at 16 g/ha ([14]; 16 g ai/ha, scale 0 to 100) | pest or weed control at 31 g/ha ([14]; 31 g ai/ha, scale 0 to 100)
25%: pest or weed control at 62 g/ha [3, 20] | pest or weed control at 125 g/ha [3, 21]
90%: pest or weed control at 125 g/ha ([4]; 125 g ai/ha) | pest or weed control at 125 g/ha ([5]; 125 g ai/ha) | pest or weed control at 125 g/ha ([7]; 125 g ai/ha) | plant injury at 500 g/ha ([9]; 500 g ai/ha) | pest or weed control at 500 g/ha ([12]; 500 g ai/ha) | pest or weed control at 16 g/ha ([16]; 16 g ai/ha, scale 0 to 100)
5%: pest or weed control at 31 g/ha ([1]; 31 g ai/ha, scale 0 to 100) | pest or weed control at 125 g/ha [1, 21] | plant injury at 125 g/ha ([17]; 125 g ai/ha, scale of 0 to 100) | pest or weed control at 62 g/ha ([18]; 62 g ai/ha, scale 0 to 100)
85%: pest or weed control at 31 g/ha ([15]; 31 g ai/ha, scale 0 to 100) | pest or weed control at 62 g/ha ([19]; 62 g ai/ha, scale 0 to 100)
15%: pest or weed control at 31 g/ha ([2]; 31 g ai/ha, scale 0 to 100)
30%: pest or weed control at 16 g/ha ([3]; 16 g ai/ha, scale 0 to 100)
50%: plant injury at 125 g/ha ([9]; 125 g ai/ha) | pest or weed control at 125 g/ha ([18]; 125 g ai/ha, scale of 0 to 100)
0%: pest or weed control at 16 g/ha ([1]; 16 g ai/ha, scale 0 to 100) | plant injury at 16 g/ha ([17]; 16 g ai/ha, scale 0 to 100) | plant injury at 31 g/ha ([17]; 31 g ai/ha, scale 0 to 100) | plant injury at 62 g/ha ([17]; 62 g ai/ha, scale 0 to 100) | pest or weed control at 16 g/ha ([18]; 16 g ai/ha, scale 0 to 100) | pest or weed control at 31 g/ha ([18]; 31 g ai/ha, scale 0 to 100)
